Experimental data as given in patent US20230146455A1, “TREATMENT OF INFLAMMATORY DISEASES WITH PEPTIDES AND PHARMACEUTICAL COMPOSITIONS” (Yuyu Pharma, Inc., priority 2020, published 2023).
Where “and” joins values, the source holds several entries; their conditions need not be identical. Equal values may be shown once. Where a SMILES comes first, the peptide text is derived from it. [ ]: non-standard residue; d: D form. Hyp = O=C(O)[C@@H]1C[C@@H](O)CN1

Assays:
[1] = tested on: TNF-alpha; experiment: Example 9 Luminex, LPS hPBMCs: TNF-alpha; format: cell-based, human
Method: (§1) Treatment Human PBMCs were pretreated with YY-101, YDE-011 and YDE-043 or reference compound; Xiidra® at various concentration (ranging from 1 nM to 100 uM) for 2 h before stimulation. An equal volume of 0.5% DMSO was used as a vehicle control. Then, the cells were treated with LPS at 5 ug/ml. The supernatants from treated cells were harvested at 24 h and placed in a 96 well for Luminex cytokine & chemokine profiling using a Luminex 200 multiplex assay (Luminex; R&D system, USA).
(§2) The main study arm with triplicate wells per group in a 24-well plate: • 1. Blank • 2. PBMC: 0.5% DMSO • 3. PBMC+LPS (5 ug/ml) • 4. PBMC+YY-101 100 uM • 5. PBMC+YY-101 10 uM • 6. PBMC+YY-101 1 uM • 7. PBMC+YY-101 0.1 uM • 8. PBMC+YY-101 0.01 uM • 9. PBMC+LPS (5 ug/ml)+Xiidra®100 uM • 10. PBMC+LPS (5 ug/ml)+Xiidra® 10 uM • 11. PBMC+LPS (5 ug/ml)+Xiidra® 1 uM • 12. PBMC+LPS (5 ug/ml)+Xiidra®0.1 uM • 13. PBMC+LPS (5 ug/ml)+Xiidra®0.01 uM • 14. PBMC+LPS (5 ug/ml)+Xiidra®0.001 uM • 15. PBMC+LPS (5 ug/ml)+YY-101 100 uM • 16. PBMC+LPS (5 ug/ml)+YY-101 10 uM • 17. PBMC+LPS (5 ug/ml)+YY-101 1 uM • 18. PBMC+LPS (5 ug/ml)+YY-101 0.1 uM • 19. PBMC+LPS (5 ug/ml)+YY-101 0.01 uM • 20. PBMC+LPS (5 ug/ml)+YY-101 0.001 uM • 21. PBMC+LPS (5 ug/ml)+YDE-011 100 uM • 22. PBMC+LPS (5 ug/ml)+YDE-011 10 uM • 23. PBMC+LPS (5 ug/ml)+YDE-011 1 uM • 24. PBMC+LPS (5 ug/ml)+YDE-011 0.1 uM • 25. PBMC+LPS (5 ug/ml)+YDE-011 0.01 uM • 26. PBMC+LPS (5 ug/ml)+YDE-011 0.001 uM • 27. PBMC+LPS (5 ug/ml)+YDE-043 100 uM • 28. PBMC+LPS (5 ug/ml)+YDE-043 10 uM • 29. PBMC+LPS (5 ug/ml)+YDE-043 1 uM • 30. PBMC+LPS (5 ug/ml)+YDE-043 0.1 uM • 31. PBMC+LPS (5 ug/ml)+YDE-043 0.01 uM • 32. PBMC+LPS (5 ug/ml)+YDE-043 0.001 uM
(§3) Multiplex assay was used to measure 30 cytokines and chemokines. The 1:2, 1:10 and 1:200 diluted cell supernatant and serial dilution of the standard were dispensed into a 96 well plate at 50 ul/well. Then, the pre-mixed cocktail of antibody-coated magnetic beads was dispensed at 50 ul/well and incubated at room temperature for 2 h in a horizontal orbital microplate shaker at 800±500 rpm. The beads were washed using a magnetic device to prevent loss. The biotin-antibody was dispensed in 50 ul of each well and incubated at room temperature for 1 h in a shaker at 800±500 rpm. After washing, streptavidin-PE was added at 50 ul/well and incubated at room temperature for 30 min in a shaker under the same conditions. Finally, after washing, wash buffer (100 ul/well) was added to the plate and incubated in a shaker for 2 min. The Luminex™ 200 setting were set according to the manufacturer's protocol. The data was calculated with a standard five-parameter logistic nonlinear regression analysis of the data (xPonent software 4.2, USA). The levels of cytokine/chemokine are normalized to the live cell counts (1×10^5 cells/mL) and presented as concentrations per mL (pg/mL or ng/mL).

[2] = tested on: TIMP-1; experiment: Example 9 Luminex, LPS hPBMCs: TIMP-1; format: cell-based, human; details: PBMC + LPS(5 ug/ml)
Method: as §1, §2, §3

[3] = PBMC + LPS(5 ug/ml) + test article 0.001 uM, Mean
[4] = PBMC + LPS(5 ug/ml) + test article 0.001 uM, individual replicates (1st, 2nd, 3rd)
[5] = PBMC + LPS(5 ug/ml) + test article 0.01 uM, Mean
[6] = PBMC + LPS(5 ug/ml) + test article 0.01 uM, individual replicates (1st, 2nd, 3rd)
[7] = PBMC + LPS(5 ug/ml) + test article 0.1 uM, Mean
[8] = PBMC + LPS(5 ug/ml) + test article 0.1 uM, individual replicates (1st, 2nd, 3rd)
[9] = PBMC + LPS(5 ug/ml) + test article 1 uM, Mean
[10] = PBMC + LPS(5 ug/ml) + test article 1 uM, individual replicates (1st, 2nd, 3rd)
[11] = PBMC + LPS(5 ug/ml) + test article 10 uM, Mean
[12] = PBMC + LPS(5 ug/ml) + test article 10 uM, individual replicates (1st, 2nd, 3rd)
[13] = PBMC + LPS(5 ug/ml) + test article 100 uM, Mean
[14] = PBMC + LPS(5 ug/ml) + test article 100 uM, individual replicates (1st, 2nd, 3rd)
[15] = PBMC + test article 0.01 uM, no LPS, Mean
[16] = PBMC + test article 0.01 uM, no LPS, individual replicates (1st, 2nd)
[17] = PBMC + test article 0.1 uM, no LPS, Mean
[18] = PBMC + test article 0.1 uM, no LPS, individual replicates (1st, 2nd)
[19] = PBMC + test article 1 uM, no LPS, Mean
[20] = PBMC + test article 1 uM, no LPS, individual replicates (1st, 2nd)
[21] = PBMC + test article 10 uM, no LPS, Mean
[22] = PBMC + test article 10 uM, no LPS, individual replicates (1st, 2nd)
[23] = PBMC + test article 100 uM, no LPS, Mean
[24] = PBMC + test article 100 uM, no LPS, individual replicates (1st, 2nd)
[25] = test article 0.001 uM, single replicates

CC(C)C[C@H](NC(=O)CNC(=O)[C@H](CC(=O)O)NC(=O)[C@H](CCC(N)=O)NC(=O)CNC(=O)[C@@H]1C[C@@H](O)CN1)C(=O)N[C@@H](C)C(=O)NCC(=O)N1CCC[C@H]1C(=O)N[C@@H](CCCCN)C(=O)O [YY-101] (H-[Hyp]GQDGLAGPK-OH; N-terminus and C-terminus assumed)
LPS-induced TNF-alpha (in words) ([1]; LPS 5 ug/mL 24 hrs, at as low as 1 nM): significantly reduced
TNF-alpha Concentration [1, 3]: 2433.4 pg/mL
TNF-alpha conc/live cell [1, 3]: 379.7 pg/10^5
TNF-alpha Concentration [1, 4]: 2537.1 pg/mL and 2609.2 pg/mL and 2154.0 pg/mL
TNF-alpha conc/live cell [1, 4]: 445.1 pg/10^5 and 367.5 pg/10^5 and 326.4 pg/10^5
TNF-alpha Concentration [1, 5]: 2746.9 pg/mL
TNF-alpha conc/live cell [1, 5]: 445.6 pg/10^5
TNF-alpha Concentration [1, 6]: 2819.6 pg/mL and 2784.2 pg/mL and 2636.8 pg/mL
TNF-alpha conc/live cell [1, 6]: 440.6 pg/10^5 and 464.0 pg/10^5 and 432.3 pg/10^5
TNF-alpha Concentration [1, 7]: 2852.4 pg/mL
TNF-alpha conc/live cell [1, 7]: 489.7 pg/10^5
TNF-alpha Concentration [1, 8]: 2791.9 pg/mL and 2870.4 pg/mL and 2895.0 pg/mL
TNF-alpha conc/live cell [1, 8]: 450.3 pg/10^5 and 552.0 pg/10^5 and 466.9 pg/10^5
TNF-alpha Concentration [1, 9]: 2552.6 pg/mL
TNF-alpha conc/live cell [1, 9]: 392.3 pg/10^5
TNF-alpha Concentration [1, 10]: 2738.1 pg/mL and 2506.5 pg/mL and 2413.2 pg/mL
TNF-alpha conc/live cell [1, 10]: 434.6 pg/10^5 and 353.0 pg/10^5 and 389.2 pg/10^5
TNF-alpha Concentration [1, 11]: 2746.8 pg/mL
TNF-alpha conc/live cell [1, 11]: 416.6 pg/10^5
TNF-alpha Concentration [1, 12]: 2741.2 pg/mL and 2807.3 pg/mL and 2692.0 pg/mL
TNF-alpha conc/live cell [1, 12]: 456.9 pg/10^5 and 438.6 pg/10^5 and 354.2 pg/10^5
TNF-alpha Concentration [1, 13]: 2443.4 pg/mL
TNF-alpha conc/live cell [1, 13]: 423.4 pg/10^5
TNF-alpha Concentration [1, 14]: 2569.3 pg/mL and 2318.5 pg/mL and 2442.3 pg/mL
TNF-alpha conc/live cell [1, 14]: 407.8 pg/10^5 and 374.0 pg/10^5 and 488.5 pg/10^5
TNF-alpha Concentration [1, 15]: 28.1 pg/mL
TNF-alpha conc/live cell [1, 15]: 5.6 pg/10^5
TNF-alpha Concentration [1, 16]: 26.8 pg/mL and 29.4 pg/mL
TNF-alpha conc/live cell [1, 16]: 5.1 pg/10^5 and 6.1 pg/10^5
TNF-alpha Concentration [1, 17]: 29.4 pg/mL
TNF-alpha conc/live cell [1, 17]: 5.8 pg/10^5
TNF-alpha Concentration [1, 18]: 26.8 pg/mL and 32.0 pg/mL
TNF-alpha conc/live cell [1, 18]: 6.1 pg/10^5 and 5.5 pg/10^5
TNF-alpha Concentration [1, 19]: 33.3 pg/mL
TNF-alpha conc/live cell [1, 19]: 6.1 pg/10^5
TNF-alpha Concentration [1, 20]: 32.0 pg/mL and 34.6 pg/mL
TNF-alpha conc/live cell [1, 20]: 5.8 pg/10^5 and 6.3 pg/10^5
TNF-alpha Concentration [1, 21]: 61.4 pg/mL
TNF-alpha conc/live cell [1, 21]: 9.7 pg/10^5
TNF-alpha Concentration [1, 22]: 90.9 pg/mL and 32.0 pg/mL
TNF-alpha conc/live cell [1, 22]: 14.2 pg/10^5 and 5.2 pg/10^5
TNF-alpha Concentration [1, 23]: 72.7 pg/mL
TNF-alpha conc/live cell [1, 23]: 11.0 pg/10^5
TNF-alpha Concentration [1, 24]: 95.0 pg/mL and 50.5 pg/mL
TNF-alpha conc/live cell [1, 24]: 14.8 pg/10^5 and 7.2 pg/10^5
TIMP-1 Concentration ([2]; test article 0.001 uM, Mean): 2635.9 pg/mL
TIMP-1 MFI ([2]; test article 0.001 uM, Mean): 1569.7
TIMP-1 conc/live cell ([2]; test article 0.001 uM, Mean): 411.8 pg/10^5
TIMP-1 Concentration [2, 25]: 2670.8 pg/mL and 2497.3 pg/mL and 2739.7 pg/mL
TIMP-1 MFI [2, 25]: 1596.0 and 1464.5 and 1648.5
TIMP-1 conc/live cell [2, 25]: 468.6 pg/10^5 and 351.7 pg/10^5 and 415.1 pg/10^5
TIMP-1 Concentration ([2]; test article 0.01 uM, Mean): 2651.1 pg/mL
TIMP-1 MFI ([2]; test article 0.01 uM, Mean): 1581.2
TIMP-1 conc/live cell ([2]; test article 0.01 uM, Mean): 430.2 pg/10^5
TIMP-1 Concentration ([2]; test article 0.01 uM, single replicates): 2636.0 pg/mL and 2552.3 pg/mL and 2765.2 pg/mL
